Assay results from PMC4987650, “Structural Investigation of Park’s Nucleotide on Bacterial Translocase MraY: Discovery of Unexpected MraY Inhibitors” (Scientific Reports, 2016).

Legend:
MraYBS F228A mutant = target: T1, MraYBS F228A mutant (Bacillus subtilis, UniProt Q03521, F228A); test: HPLC-based MraY functional assay, mutant MraY; format: biochemical; settings: consumption of 6 in one-hour reaction
T1 construct: MBP; made in house
Method: (§1) The purified MraY from Bacillus subtilis was prepared as described in our previous reports. For 5 and 7–10, the reaction mixture containing MraYBS (10 μg/mL), C55P (200 μM) in 40 μL reaction buffer (30 mM Tris, 10 mM MgCl2, 10 mM NaCl, 0.1 mM Tween-20, 2.5% DMSO, pH 8.0) were pre-incubated at 37 °C for 15 min. The reactions were initiated by the addition of Park’s nucleotide analogues (10 μM) and incubated at 37 °C for 1 h. The reaction mixtures were added by uridine (0.01 mg/mL) as the internal standard and heated to 100 °C to stop the transferring reaction. The samples were analyzed by RP-C18 HPLC with gradient elution of 0.25 M NH4HCO3(aq)/15% MeOH in water (100:0 to 0:100) at a flow rate of 1 mL/min over 45 min, and the peaks of substrates were monitored at UV 260 nm. […] The reaction mixtures were heated to 100 °C to stop the transferring reaction, and samples were analyzed by an anion-exchange column (SAX1, Supelco Co., 5 μm, 4.6 × 250 mm) with a linear gradient elution of NH4OAc (20 mM to 1 M in MeOH) at a flow rate of 1.0 mL/min over 30 min. The fluorescent substrates were monitored with λex 466 nm/λem 535 nm by fluorescence detector. […]

MraYBS [1] = target: T2, MraYBS (Bacillus subtilis, UniProt Q03521); test: HPLC-based MraY functional assay (substrate activity); format: biochemical
T2 construct: MBP; made in house
T2 sequence (Q03521 1-324): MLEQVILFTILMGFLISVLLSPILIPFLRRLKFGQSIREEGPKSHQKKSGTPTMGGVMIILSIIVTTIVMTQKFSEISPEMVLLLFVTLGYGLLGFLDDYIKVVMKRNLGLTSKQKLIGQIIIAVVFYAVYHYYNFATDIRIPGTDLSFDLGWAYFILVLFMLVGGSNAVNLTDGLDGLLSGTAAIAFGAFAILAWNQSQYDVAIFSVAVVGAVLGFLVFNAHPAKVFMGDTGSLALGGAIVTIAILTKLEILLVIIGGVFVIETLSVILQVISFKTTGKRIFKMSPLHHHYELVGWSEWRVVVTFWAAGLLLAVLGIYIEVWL
Method: The purified MraY from Bacillus subtilis was prepared as described in our previous reports. […] […] The reaction mixtures were added by uridine (0.01 mg/mL) as the internal standard and heated to 100 °C to stop the transferring reaction. The samples were analyzed by RP-C18 HPLC with gradient elution of 0.25 M NH4HCO3(aq)/15% MeOH in water (100:0 to 0:100) at a flow rate of 1 mL/min over 45 min, and the peaks of substrates were monitored at UV 260 nm. For 6 and 11–17, the reaction mixture containing MraYBS (10 μg/mL), C55P (200 μM), 6-(7-Nitro-2,1,3-benzoxadiazol-4-ylamino)hexanoic acid (5 μM, internal standard) in 10 μL reaction buffer (30 mM Tris, 10 mM MgCl2, 10 mM NaCl, 0.1 mM Tween-20, 2.5% DMSO, pH 8.0) were pre-incubated at 37 °C for 15 min. […] The reaction mixtures were heated to 100 °C to stop the transferring reaction, and samples were analyzed by an anion-exchange column (SAX1, Supelco Co., 5 μm, 4.6 × 250 mm) with a linear gradient elution of NH4OAc (20 mM to 1 M in MeOH) at a flow rate of 1.0 mL/min over 30 min. The fluorescent substrates were monitored with λex 466 nm/λem 535 nm by fluorescence detector.

MraYBS T51A mutant = target: T3, MraYBS T51A mutant (Bacillus subtilis, UniProt Q03521, T51A); test: HPLC-based MraY functional assay, mutant MraY; format: biochemical; settings: consumption of 6 in one-hour reaction
T3 construct: MBP; made in house
Method: as §1

MraYBS Q271A mutant = target: T4, MraYBS Q271A mutant (Bacillus subtilis, UniProt Q03521, Q271A); test: HPLC-based MraY functional assay, mutant MraY; format: biochemical; settings: consumption of 6 in one-hour reaction
T4 construct: MBP; made in house
Method: as §1

MraYBS [2] = target: T2, MraYBS; test: Biolayer interferometry-based (BLI) binding assay
Method: MraYBS binding was measured in a biolayer interferometry-based binding assay on Octet Red96® instrument (ForteBio, Inc.). The biotinylation of MraYBS was performed with using EZ-Link® Sulfo-NHS-LC-LC-Biotin Kit (Thermo Fisher Scientific, Inc.). In general, MraYBS (1.7 mg/mL) in 50 μL reaction buffer (0.01 M HEPES pH 7.4, 0.15 M NaCl, 0.005% v/v Surfactant P20), was added by the sulfo-NHS-LC-LC-biotin reagent (1 mM, 1 μL). After incubating for 30 minutes at room temperature, the biotinylated-MraYBS was purified by a Zeba^TM Spin Desalting Columns, 7K MWCO (Thermo Fisher Scientific, Inc.), and the buffer was changed to the binding buffer (30 mM Tris, 10 mM MgCl2, 10 mM NaCl, 0.1 mM Tween-20, pH 8.0) during the purification. Comparing to the non-biotinylated-MraYBS, the biotinylated-MraYBS remains 62% activity measured by the HPLC-based MraY functional assay in 1 h reaction. The biotinylated MraYBS was then immobilized to Super Streptavidin (SSA) Octet tips (ForteBio, Inc.) for reaching a fixed signal of 3 nm. Before the assay starting, the MraYBS-labeled SSA sensors were pre-soaked in binding buffer for 30 min. The association of Park’s analogues with MraYBS were measured by incubating MraYBS-labeled SSA sensors in binding buffer containing various concentrations of samples in Octet Red system. The dissociation was monitored by moving the ligand biosenors from the analyte solution to binding buffer. The dissociation constants (KD) were obtained by nonlinear regression analysis using the specific binding model with the GraphPad Prism program (GraphPad Software, San Diego, CA).

CC(=O)N[C@H]1[C@@H](OP(=O)(O)OP(=O)(O)OC[C@H]2O[C@@H](n3ccc(=O)[nH]c3=O)[C@H](O)[C@@H]2O)O[C@H](CO)[C@@H](O)[C@@H]1O[C@H](C)C(=O)N[C@@H](C)C(=O)N[C@H](CCC(=O)N[C@@H](CCCCNC(=O)CCCCCNc1ccc([N+](=O)[O-])c2nonc12)C(=O)N[C@H](C)C(=O)N[C@H](C)C(=O)O)C(=O)O [Compound 6, NBD-Park’s nucleotide]
Relative activity (MraYBS F228A mutant): 98%
substrate consumption (MraYBS [1]; C55P (200 μM) as polyprenyl phosphate substrate, substrate 10 μM, within 1 h (60 min)): completely consumed
Relative activity (MraYBS [1]; WT MraYBS, consumption of 6 in one-hour reaction): 100%
Relative activity (MraYBS T51A mutant): 60%
Relative activity (MraYBS Q271A mutant): 16%
Kd (MraYBS [2]): 127 µM
